# Assay results from US20130005747A1, “METHOD FOR SELECTING A CANCER THERAPY” (Cyclacel Limited, priority 2010, published 2013).
# pIC50: −log10 of the molar value.
# Columns and labels:
# H292 = assay: Cell line IC50 (Table 3); type: cell-based, human; details: Lung
# MCF7 = assay: Cell line IC50 (Table 3); type: cell-based, human; details: Ras WT, Breast
# MESSA = assay: Cell line IC50 (Table 3); type: cell-based, human; details: Ras WT, sarcoma
# A2780 = assay: Cell line IC50 (Table 3); type: cell-based, human; details: Ras WT, Ovary
# CDK = CDK inhibitory profile; type: biochemical; details: compared with roscovitine
# H1650 = assay: Cell line IC50 (Table 3); type: cell-based, human; details: Lung
# HCT 116 = assay: Cell line IC50 (Table 3); type: cell-based; details: Homo sapiens, K-Ras G13D, Colon
# Saos-2 = assay: Cell line IC50 (Table 3); type: cell-based; details: Homo sapiens, Ras WT, Osteosarcoma
# LoVo = assay: Cell line IC50 (Table 3); type: cell-based, human; details: K-Ras G13D, Colon
# LP-1 = assay: Cell line IC50 (Table 3); type: cell-based; details: Homo sapiens, Ras WT, Myeloma
# H358 = assay: Cell line IC50 (Table 3); type: cell-based, human; details: Lung
# Colo205 = assay: Cell line IC50 (Table 3); type: cell-based, human; details: Colon
# NCI-H929 = assay: Cell line IC50 (Table 3); type: cell-based, human; details: N-Ras, Myeloma
# A549 = assay: Cell line IC50 (Table 3); type: cell-based, human; details: K-Ras G12S, Lung
# cell lines of Table 3 = assay: Cell line panel of Table 3, summary over cell lines; type: cell-based, human; details: median over the cell lines of Table 3
# NCI-H460 = assay: Cell line IC50 (Table 3); type: cell-based, human; details: K-Ras Q61H, Lung
# HT-29 = assay: Cell line IC50 (Table 3); type: cell-based; details: Homo sapiens, Ras WT, Colon
# H2052 = assay: Cell line IC50 (Table 3); type: cell-based, human; details: Mesothelioma
# MDA-MB-436 = assay: Cell line IC50 (Table 3); type: cell-based, human; details: Ras WT, Breast
# [1] = Homo sapiens, NCI-H1650, Ras WT
# [2] = Homo sapiens, NCI-H358, K-Ras G12C
# [3] = Homo sapiens, NCI-H2052, Ras WT
"pIC50 (H292; Homo sapiens, NCI-H292, Ras WT)",pIC50 (MCF7; Homo sapiens),"pIC50 (MESSA; Homo sapiens, MES-SA)",pIC50 (A2780; Homo sapiens),pIC50 (H1650; [1]),pIC50 (HCT 116),pIC50 (Saos-2),pIC50 (LoVo; Homo sapiens),pIC50 (LP-1),pIC50 (H358; [2]),"pIC50 (Colo205; Homo sapiens, COLO 205, Ras WT)",pIC50 (NCI-H929; Homo sapiens),pIC50 (A549; Homo sapiens),pIC50 (cell lines of Table 3; Homo sapiens),pIC50 (NCI-H460; Homo sapiens),pIC50 (HT-29),pIC50 (H2052; [3]),pIC50 (MDA-MB-436; Homo sapiens),Structure (SMILES),CDK inhibitory profile (in words) (CDK),other results
6.05,6.40,6.30,6.40,5.92,6.40,5.85,6.10,6.30,6.52,6.10,6.10,6.30,6.10,6.15,5.92,6.05,6.00,"CC[C@H](Nc1nc(NCc2cccnc2)c2ncn(C(C)C)c2n1)[C@@H](C)O [Compound D, (2R,3S)-3-({9-isopropyl-6-[(pyridin-3-ylmethyl)amino]-9H-purin-2-yl}amino)pentan-2-ol]",very similar CDK inhibitory profiles to roscovitine,
5.18,5.44,5.44,5.59,5.19,,5.28,5.35,,5.57,5.35,5.28,5.52,5.35,5.55,5.39,5.28,5.18,"CC[C@@H](Nc1nc(NCc2cccnc2)c2ncn(C(C)C)c2n1)C(C)(C)O [Compound B, (3R)-3-{9-isopropyl-6-[(pyridin-3-ylmethyl)-amino]-9H-purin-2-ylamino}-2-methyl-pentan-2-ol]",very similar CDK inhibitory profiles to roscovitine,
5.64,5.80,5.80,5.96,5.43,5.80,5.60,5.66,5.80,6.10,5.64,5.62,5.80,5.66,5.66,5.77,5.62,5.47,"CC[C@H](Nc1nc(NCc2cccnc2)c2ncn(C(C)C)c2n1)C(C)(C)O [Compound C, (3S)-3-{9-isopropyl-6-[(pyridin-3-ylmethyl)-amino]-9H-purin-2-ylamino}-2-methyl-pentan-2-ol]",very similar CDK inhibitory profiles to roscovitine,
,,,,,,,,,,,,,,,,,,CC[C@H](Nc1nc(NCc2cnc(C)cc2C)c2ncn(C(C)C)c2n1)[C@@H](C)O [Compound A],,pIC50 (H292; Ras WT): 6.40; pIC50 (MCF7): 6.52; pIC50 (MESSA): 6.70; pIC50 (A2780): 6.40; pIC50 (H1650; Ras WT): 6.30; pIC50 (LoVo): 6.15; pIC50 (H358; K-Ras G12C): 6.70; pIC50 (Colo205; Ras WT): 6.52; pIC50 (NCI-H929): 6.40; pIC50 (A549): 6.70; pIC50 (cell lines of Table 3): 6.40; pIC50 (NCI-H460): 6.30; pIC50 (H2052; Ras WT): 6.52; pIC50 (MDA-MB-436): 6.40
